According to patent EP4095134A1, “POLYCYCLIC COMPOUNDS FOR THE TREATMENT OF NEUROLOGICAL INDICATIONS” (UCL Business Ltd, priority 2021, dated 2022):

Target: T1, P2Y1 receptor (Homo sapiens, UniProt P47900)
T1 construct: expressed in transfected cells
Assay: P2Y1 IP1 accumulation HTRF assay, antagonism of agonist MRS2365 in stably transfected cells
Assay type: cell-based
Settings: 5nM MRS2365, values rounded to nearest whole number
How it was run: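 HTRF IP1 accumulation in stably P2Y1-overexpressing cells, plated the day before. Compounds pre-incubated 1 hour (10-point semi-log curve from 10µM, 0.1% DMSO), then 5nM MRS2365 added for 60 minutes, both at 37°C / 5% CO2. IP1 interpolated from standard curve; IC50 from N ≥ 4 runs.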

T1 sequence (P47900 whole entry): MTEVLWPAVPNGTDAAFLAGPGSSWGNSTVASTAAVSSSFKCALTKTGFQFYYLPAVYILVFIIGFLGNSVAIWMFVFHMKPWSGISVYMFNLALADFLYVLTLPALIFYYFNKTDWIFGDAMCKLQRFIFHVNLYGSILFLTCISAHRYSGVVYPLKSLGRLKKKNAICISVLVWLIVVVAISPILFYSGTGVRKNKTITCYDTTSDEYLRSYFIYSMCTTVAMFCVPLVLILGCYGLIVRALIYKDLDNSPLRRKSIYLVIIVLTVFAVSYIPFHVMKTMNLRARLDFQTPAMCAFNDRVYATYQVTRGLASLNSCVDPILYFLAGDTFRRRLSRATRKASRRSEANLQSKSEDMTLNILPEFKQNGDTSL

SMILES | IC50 (racemic, N >= 4) [nM] | IC50 (single enantiomer) [nM]
Fc1ccc(Oc2ncccc2Nc2nc3ccc(OC(F)(F)F)cc3[nH]2)c(C2(C(F)(F)F)CCO2)c1 (racemic) [S121] | 1440 | –
CN1CC[C@@]1(c1ccccc1Oc1ncccc1NC(=O)Nc1ccc(OC(F)(F)F)cc1F)C(F)(F)F (single isomer, unassigned) [S98] | – | 26
Cc1ccc(NC(=O)Nc2ccc(C(C)(C)C(F)(F)F)cc2)c(Oc2ccccc2[C@@]2(C(F)(F)F)CCO2)n1 (single isomer, unassigned) [S99] | – | 29
O=C(Nc1cc(F)c(Cl)cc1F)Nc1cccnc1Oc1ccccc1[C@@]1(C(F)(F)F)CCO1 (single isomer, unassigned) [S100] | – | 44
CN1CC[C@]1(c1ccccc1Oc1ncccc1NC(=O)Nc1ccc(OC(F)(F)F)cc1F)C(F)(F)F (single isomer, unassigned) [S102] | – | 52
Cc1ccc(NC(=O)Nc2ccc(C(C)C)cc2F)c(Oc2ccccc2[C@@]2(C(F)(F)F)CCO2)n1 (single isomer, unassigned) [S122] | – | 18
Cc1c(Oc2ncccc2NC(=O)Nc2ccc(OC(F)(F)F)cc2)cccc1N1CC(C)(C)C1 [S93] | 683 | –
CC(C)(c1ccc(NC(=O)Nc2cccnc2Oc2ccccc2[C@@]2(C(F)(F)F)CCO2)cc1)C(F)(F)F [S101] | – | 48
O=C(Nc1ccc(OC(F)(F)F)cc1F)Nc1cccnc1Oc1ccccc1[C@]1(C(F)(F)F)CCO1 [S107] | – | 113
O=C(Nc1cccnc1Oc1ccccc1[C@@]1(C(F)(F)F)CCO1)Nc1ccc(Cl)c(F)c1F [S108] | – | 125
O=C(Nc1ccc(OC(F)(F)F)cc1)Nc1cccnc1Oc1ccccc1[C@@]1(C(F)(F)F)CCO1 [S110] | – | 68
O=C(Nc1ccc(OC(F)(F)F)cc1)Nc1cccnc1Oc1ccccc1[C@]1(C(F)(F)F)CCO1 [S111] | – | 119
O=C(Nc1ccc(OC(F)(F)F)cc1F)Nc1cccnc1Oc1ccccc1[C@@]1(C(F)(F)F)CCO1 [S112] | – | 38
Cc1ccc(NC(=O)Nc2ccc(OC(F)(F)F)cc2F)c(Oc2ccccc2[C@@]2(C(F)(F)F)CCO2)n1 [S113] | – | 34
Cc1ccc(NC(=O)Nc2ccc(Cl)cc2F)c(Oc2ccccc2[C@@]2(C(F)(F)F)CCO2)n1 [S114] | – | 41
CN1CC[C@@]1(c1ccccc1Oc1ncccc1NC(=O)Nc1ccc(OC(F)(F)F)cc1)C(F)(F)F [S115] | – | 39
Cc1ccc(NC(=O)Nc2ccc(C(C)C)cc2F)c(Oc2ccccc2[C@]2(C(F)(F)F)CCO2)n1 [S123] | – | 33
CC(C)c1ccc(NC(=O)Nc2cccnc2Oc2ccccc2[C@@]2(C(F)(F)F)CCO2)c(F)c1 [S124] | – | 20
